In US7803930B2, “Antisense modulation of apolipoprotein B-expression” (Isis Pharmaceuticals, Inc., priority 2002, dated 2010):
In the oligonucleotide strings, read from the 5' end, every base follows the letter of its sugar. An asterisk marks phosphorothioate; unmarked linkages are phosphodiester. Other units and linkages are bracketed, terminal groups are in braces. A string of capitals states the bases alone. e = 2'-O-(2-methoxyethyl) (MOE); [5mC] = 5-methylcytosine; d = 2'-deoxy (DNA)

Columns and labels:
apolipoprotein B mRNA [1] = assay: LDLr(-/-) mice dose response (Example 44): apolipoprotein B mRNA; assay type: in vivo, mouse; details: six weeks
Method: (§1) LDLr(−/−) mice, purchased from Taconic (Germantown, N.Y.) were used to evaluate antisense oligonucleotides for their potential to lower apolipoprotein B mRNA or protein levels, as well as phenotypic endpoints associated with apolipoprotein B. LDLr(−/−) mice were separated into groups of males and females. LDLr(−/−) mice were dosed intraperitoneally twice a week for six weeks with either 10, 25, or 50 mg/kg of ISIS 147764 (SEQ ID NO: 109) or ISIS 270906 (SEQ ID NO: 856) which is a 4 base mismatch of ISIS 147764, or with saline, or 20 mg/kg of Atorvastatin. At study termination animals were sacrificed and evaluated for several phenotypic markers.

[2] = LDLr(-/-) mice dose response (Example 44): liver enzyme, cholesterol and triglyceride levels; assay type: in vivo, mouse; details: six weeks
Method: as §1

apolipoprotein B mRNA [3] = assay: High fat fed mice, time-dependent effects and after cessation of dosing (Example 51): apolipoprotein B mRNA in liver; assay type: in vivo, mouse; details: for % Inhibition apolipoprotein B mRNA: liver
Method: In a further embodiment of the invention, the inhibition of apolipoprotein B mRNA in mice was compared to liver oligonucleotide concentration, total cholesterol, LDL-cholesterol and HDL-cholesterol. Male C57Bl/6 mice receiving a high fat diet (60% fat) were evaluated over the course of 6 weeks for the effects of treatment with twice weekly intraperitoneal injections of 50 mg/kg ISIS 147764 (SEQ ID NO: 109) or 50 mg/kg of the control oligonucleotide ISIS 141923 (SEQ ID NO: 858). Control animals received saline treatment. Animals were sacrificed after 2 days, 1, 2, 4 and 6 weeks of treatment. Each treatment group at each time point consisted of 8 mice.
Target expression in liver was measured by real-time PCR as described by other examples herein and is expressed as percent inhibition relative to saline treated mice. Total, LDL- and HDL-cholesterol levels were measured by routine clinical analysis using an Olympus Clinical Analyzer (Olympus America Inc., Melville, N.Y.) and are presented in mg/dL. Results from saline-treated animals are shown for comparison. Intact oligonucleotide in liver tissue was measured by capillary gel electrophoresis and is presented as micrograms of oligonucleotide per gram of tissue.
The oligonucleotide treatments described in this example were duplicated to investigate the extent to which effects of ISIS 147764 persist following cessation of treatment. Mice were treated as described, and sacrificed 1, 2, 4, 6 and 8 weeks following the cessation of oligonucleotide treatment.

[4] = tested on: human apolipoprotein B protein; assay: Transgenic mice (Example 47): serum human apolipoprotein B protein by ELISA; assay type: in vivo, human transgene in mouse; details: 25 mg/kg, relative to saline-treated animals
Method: Serum samples were also collected at 2, 4, 6 and 8 weeks and were evaluated for human apolipoprotein B expression by using a human apolipoprotein B specific ELISA kit (ALerCHEK Inc., Portland, Me.). […] Treatment with ISIS 301012 reduced serum human apolipoprotein B protein by 70, 87, 81 and 41% at 2, 4, 6 and 8 weeks, respectively, relative to saline-treated control animals. Serum from transgenic mice was also subjected to immunoblot analysis using both human and mouse specific apolipoprotein B antibodies (US Biologicals, Swampscott, Mass. and Santa Cruz Biotechnology, Inc., Santa Cruz, Calif., respectively).

[5] = High fat fed C57BL/6 mice, 6 week timecourse: body, spleen, liver and fat pad weight; assay type: in vivo, mouse; details: six weeks, vs saline-treated controls
Method: Male C57BL/6 mice (n=8) receiving a high fat diet (60% kcal fat) were evaluated over the course of 6 weeks for the effects of ISIS 147764 on body, spleen, liver and fat pad weight. Control animals received saline treatment (50 mg/kg). […]
At study termination, animals were sacrificed 48 hours after the final injections and body, spleen, liver and fat pad weights were measured. Values are expressed as percent change in body weight or ogan weight compared to the saline-treated control animals. Negative values indicated a decrease in weight.

[6] = Transgenic mice dosing study (Example 52): serum total, LDL- and HDL-cholesterol; assay type: in vivo, mouse; details: 10 or 25 mg/kg, first 4 weeks of treatment
Method: A long-term study of inhibition of human apolipoprotein B by ISIS 301012 in C57BL/6NTac-TgN(APOB100) mice (Taconic, Germantown, N.Y.) was conducted for a 3 month period. Mice were dosed intraperitoneally twice a week with 10 or 25 mg/kg ISIS 301012 (SEQ ID No: 247) for 12 weeks. Saline-injected animals served as controls. Each treatment group comprised 4 animals.
Results are presented as mg/dL in serum and represent the average of 4 animals. Results from the saline control animals are also shown.

[7] = female LDLr(-/-) mice, 10 mg/kg i.p. twice a week
[8] = female LDLr(-/-) mice, 25 mg/kg i.p. twice a week
[9] = female LDLr(-/-) mice, 50 mg/kg i.p. twice a week
[10] = male LDLr(-/-) mice, 10 mg/kg i.p. twice a week
[11] = male LDLr(-/-) mice, 25 mg/kg i.p. twice a week
[12] = male LDLr(-/-) mice, 50 mg/kg i.p. twice a week
[13] = male and female LDLr(-/-) mice, 10, 25 or 50 mg/kg i.p. twice a week

147764 (eG*eT*e[5mC]*e[5mC]*e[5mC]*dT*dG*dA*dA*dG*dA*dT*dG*dT*d[5mC]*eA*eA*eT*eG*e[5mC]) [compound 147764]
apolipoprotein B mRNA % control (apolipoprotein B mRNA [1]; [7]): 64.2 % control
apolipoprotein B mRNA % control (apolipoprotein B mRNA [1]; [8]): 41.3 % control
apolipoprotein B mRNA % control (apolipoprotein B mRNA [1]; [9]): 18.5 % control
apolipoprotein B mRNA % control (apolipoprotein B mRNA [1]; [10]): 61.7 % control
apolipoprotein B mRNA % control (apolipoprotein B mRNA [1]; [11]): 30.7 % control
apolipoprotein B mRNA % control (apolipoprotein B mRNA [1]; [12]): 16.6 % control
Lipoproteins CHOL [2, 7]: 269.6 mg/dL
Lipoproteins HDL [2, 7]: 121.0 mg/dL
Lipoproteins LDL [2, 7]: 127.8 mg/dL
Lipoproteins TRIG [2, 7]: 140.8 mg/dL
Liver Enzymes ALT [2, 7]: 27.2 IU/L
Liver Enzymes AST [2, 7]: 82.0 IU/L
Lipoproteins CHOL [2, 8]: 175.8 mg/dL
Lipoproteins HDL [2, 8]: 99.5 mg/dL
Lipoproteins LDL [2, 8]: 68.9 mg/dL
Lipoproteins TRIG [2, 8]: 100.4 mg/dL
Liver Enzymes ALT [2, 8]: 32.2 IU/L
Liver Enzymes AST [2, 8]: 61.4 IU/L
Lipoproteins CHOL [2, 9]: 138.2 mg/dL
Lipoproteins HDL [2, 9]: 92.2 mg/dL
Lipoproteins LDL [2, 9]: 45.9 mg/dL
Lipoproteins TRIG [2, 9]: 98.0 mg/dL
Liver Enzymes ALT [2, 9]: 120.4 IU/L
Liver Enzymes AST [2, 9]: 134.6 IU/L
Lipoproteins CHOL [2, 10]: 314.2 mg/dL
Lipoproteins HDL [2, 10]: 150.0 mg/dL
Lipoproteins LDL [2, 10]: 134.7 mg/dL
Lipoproteins TRIG [2, 10]: 198.6 mg/dL
Liver Enzymes ALT [2, 10]: 29.8 IU/L
Liver Enzymes AST [2, 10]: 57.6 IU/L
Lipoproteins CHOL [2, 11]: 185.0 mg/dL
Lipoproteins HDL [2, 11]: 110.6 mg/dL
Lipoproteins LDL [2, 11]: 66.2 mg/dL
Lipoproteins TRIG [2, 11]: 104.2 mg/dL
Liver Enzymes ALT [2, 11]: 78.8 IU/L
Liver Enzymes AST [2, 11]: 112.6 IU/L
Lipoproteins CHOL [2, 12]: 165.6 mg/dL
Lipoproteins HDL [2, 12]: 107.8 mg/dL
Lipoproteins LDL [2, 12]: 51.2 mg/dL
Lipoproteins TRIG [2, 12]: 113.4 mg/dL
Liver Enzymes ALT [2, 12]: 156.8 IU/L
Liver Enzymes AST [2, 12]: 163.6 IU/L
% Inhibition apolipoprotein B mRNA (apolipoprotein B mRNA [3]; high fat fed male C57Bl/6 mice, 50 mg/kg i.p. twice weekly, treatment period 1 week): 57%
% Inhibition apolipoprotein B mRNA (apolipoprotein B mRNA [3]; high fat fed male C57Bl/6 mice, 50 mg/kg i.p. twice weekly, treatment period 2 weeks): 73%
% Inhibition apolipoprotein B mRNA (apolipoprotein B mRNA [3]; high fat fed male C57Bl/6 mice, 50 mg/kg i.p. twice weekly, treatment period 4 weeks): 82%
% Inhibition apolipoprotein B mRNA (apolipoprotein B mRNA [3]; high fat fed male C57Bl/6 mice, 50 mg/kg i.p. twice weekly, treatment period 6 weeks): 88%
% Inhibition apolipoprotein B mRNA (apolipoprotein B mRNA [3]; high fat fed male C57Bl/6 mice, 50 mg/kg i.p. twice weekly, treatment period 2 days): 50%
% Inhibition apolipoprotein B mRNA (apolipoprotein B mRNA [3]; high fat fed mice, 50 mg/kg i.p. twice weekly, 1 week after cessation of dosing): 82%
% Inhibition apolipoprotein B mRNA (apolipoprotein B mRNA [3]; high fat fed mice, 50 mg/kg i.p. twice weekly, 2 weeks after cessation of dosing): 78%
% Inhibition apolipoprotein B mRNA (apolipoprotein B mRNA [3]; high fat fed mice, 50 mg/kg i.p. twice weekly, 4 weeks after cessation of dosing): 49%
% Inhibition apolipoprotein B mRNA (apolipoprotein B mRNA [3]; high fat fed mice, 50 mg/kg i.p. twice weekly, 6 weeks after cessation of dosing): 37%
% Inhibition apolipoprotein B mRNA (apolipoprotein B mRNA [3]; high fat fed mice, 50 mg/kg i.p. twice weekly, 8 weeks after cessation of dosing): 19%

ISIS 281625: SEQ ID NO: 224, 2′-MOE gapmer targeted to human apolipoprotein B (antisense eA*eG*eG*eT*eT*dA*d[5mC]*d[5mC]*dA*dG*d[5mC]*d[5mC]*dA*d[5mC]*dA*eT*eG*e[5mC]*eA*eG)
reduction of serum human apolipoprotein B protein (ELISA) ([4]; 2 weeks): 31%
reduction of serum human apolipoprotein B protein (ELISA) ([4]; 4 weeks): 26%
reduction of serum human apolipoprotein B protein (ELISA) ([4]; 6 weeks): 11%
reduction of serum human apolipoprotein B protein (ELISA) ([4]; 8 weeks): 26%

GTCCCTGAAGATGTCAATGC (2'-MOE gapmer, further chemistry not given here) [ISIS 147764]
Percent Change Fat (fat pad weight) ([5]; 5 mg/kg i.p.): 10%
Percent Change Liver weight ([5]; 5 mg/kg i.p.): 18%
Percent Change Spleen weight ([5]; 5 mg/kg i.p.): 10%
Percent Change Total Body Wt. ([5]; 5 mg/kg i.p.): 5%
Percent Change Fat (fat pad weight) ([5]; 25 mg/kg i.p.): 6%
Percent Change Liver weight ([5]; 25 mg/kg i.p.): 70%
Percent Change Spleen weight ([5]; 25 mg/kg i.p.): 10%
Percent Change Total Body Wt. ([5]; 25 mg/kg i.p.): 5%
Percent Change Fat (fat pad weight) ([5]; 50 mg/kg i.p.): −47%
Percent Change Liver weight ([5]; 50 mg/kg i.p.): 80%
Percent Change Spleen weight ([5]; 50 mg/kg i.p.): 46%
Percent Change Total Body Wt. ([5]; 50 mg/kg i.p.): −4%
mRNA levels (apolipoprotein B mRNA [1]; [13]): able to lower cholesterol, triglycerides, and mRNA levels in a dose-dependent manner
cholesterol, triglycerides [2, 13]: able to lower cholesterol, triglycerides, and mRNA levels in a dose-dependent manner
time of treatment within which inhibition of apolipoprotein B mRNA occurred (apolipoprotein B mRNA [3]; high fat fed C57Bl/6 mice, 50 mg/kg i.p. twice weekly): ≤ 2 days
persistence of effects (mRNA inhibition, cholesterol lowering) after termination of treatment (apolipoprotein B mRNA [3]; high fat fed C57Bl/6 mice, after 6 weeks of 50 mg/kg twice weekly): up to 8 weeks
LDL-cholesterol [6]: lowered
